This is an account of results in ChEMBL document CHEMBL1201862, “PubChem BioAssay data set” (2004).

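Cultured in 96-well plates, cells were exposed to test compound for 48 hours across five concentrations. The concentration for 50% growth inhibition is given as GI50.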 Calls of active or inactive are those of the source. Cut-off read from the data, not from the text of the source: active = GI50 up to about 1.1 µM and inactive = higher.

Among the test systems are A498; DU-145; HCC 2998; HOP-62; HOP-92; LOX IMVI; MDA-MB-231; MOLT-4; Malme-3M; NCI-H23; OVCAR-4; OVCAR-8; RPMI-8226; SF-295; SF-539; SK-MEL-28; SK-OV-3; SN12C; TK-10.
Holding throughout (test): growth of human tumour cells (NCI), 48 h

`O=C(Cn1c(C(=O)c2ccccc2)nc2ccccc21)c1ccccc1`: the GI50 with A498 was > 100 µM (inactive); in the test with DU-145 it was > 100 µM (inactive); with HCC 2998, > 100 µM (inactive); in the test on HOP-62 it was 26.5 µM (inactive); in the test with HOP-92 it was 70.5 µM (inactive); with LOX IMVI it was > 100 µM (inactive). Moreover, the GI50 is > 100 µM (inactive) with MDA-MB-231; > 100 µM (inactive) in the test with MOLT-4; > 96.2 µM (inactive) in the test with Malme-3M; > 100 µM (inactive) in the test on NCI-H23; 96.8 µM (inactive) in the test on OVCAR-4; > 100 µM (inactive) in the test on OVCAR-8. Besides, the GI50 was > 100 µM (inactive) in the test on RPMI-8226; 67 µM (inactive) with SF-295; > 100 µM (inactive) in the test with SF-539; > 100 µM (inactive) in the test with SK-MEL-28; > 100 µM (inactive) in the test on SK-OV-3; > 100 µM (inactive) in the test on SN12C. Besides, the GI50 with TK-10 is > 100 µM (inactive).
With `Cc1ccccc1NC(=O)c1ccc([N+](=O)[O-])cc1`, the GI50 in the test on A498, in the test on HCC 2998, in the test on HOP-62, in the test on HOP-92, in the test on LOX IMVI and in the test with MOLT-4 was > 100 µM (inactive) throughout. Moreover, the GI50 with Malme-3M, with NCI-H23, in the test with OVCAR-4, with OVCAR-8, in the test on RPMI-8226 and with SF-295 was > 100 µM (inactive) each time. Also, the GI50 in the test on SF-539 was > 100 µM (inactive); with SK-MEL-28, > 100 µM (inactive); in the test with SK-OV-3, > 100 µM (inactive); in the test with SN12C, > 100 µM (inactive); in the test with TK-10, 97.3 µM (inactive).
Take `COc1ccc2nc3ccc(OC)cc3c([S+]([O-])Cc3ccccc3)c2c1` (stereo not given): the GI50 is 17 µM (inactive) with A498; 2.07 µM (inactive) in the test on DU-145; 19.4 µM (inactive) in the test with HCC 2998; 18 µM (inactive) in the test with HOP-62; 4.76 µM (inactive) in the test with HOP-92; 2.07 µM (inactive) with LOX IMVI. For the same molecule, the GI50 in the test with MDA-MB-231 is 16 µM (inactive); with MOLT-4 it was 2.79 µM (inactive); in the test with Malme-3M, 2.42 µM (inactive); in the test with NCI-H23, 8.81 µM (inactive); with OVCAR-4, 14.9 µM (inactive); with OVCAR-8, 3.48 µM (inactive). Moreover, the GI50 was 2.3 µM (inactive) in the test with RPMI-8226; 17.8 µM (inactive) in the test on SF-295; 7.73 µM (inactive) in the test on SF-539; 9.33 µM (inactive) in the test on SK-MEL-28; 18.8 µM (inactive) with SK-OV-3; 7.62 µM (inactive) in the test with SN12C. Moreover, in the test on TK-10, the GI50 was 7.71 µM (inactive).
Turning to `C/C(=N\NC(N)=S)c1cc(C)c(C)cc1C`, the GI50 was 81.7 µM (inactive) in the test on A498; 52.5 µM (inactive) with HCC 2998; > 100 µM (inactive) in the test with HOP-62; > 100 µM (inactive) in the test on HOP-92; 70.8 µM (inactive) in the test on LOX IMVI; 20.2 µM (inactive) in the test on MOLT-4. The GI50 in the test with Malme-3M was 32.6 µM (inactive); in the test on NCI-H23 it was 41.7 µM (inactive); in the test on OVCAR-4, 30.9 µM (inactive); in the test with OVCAR-8 it was > 100 µM (inactive); in the test with RPMI-8226, 31.3 µM (inactive); with SF-295, 47 µM (inactive). In addition, the GI50 in the test on SF-539 is 35.5 µM (inactive); with SK-MEL-28 it was 86.7 µM (inactive); with SK-OV-3, > 100 µM (inactive); with SN12C, > 100 µM (inactive); with TK-10, 89.5 µM (inactive).
In the case of `O=C(NC1C(=O)NNC1c1ccccc1Cl)c1ccccc1` (stereo not given), the GI50 in the test on A498 was > 100 µM (inactive); in the test on HCC 2998, > 100 µM (inactive); with HOP-62 it was > 100 µM (inactive); with HOP-92 it was > 100 µM (inactive); in the test on LOX IMVI, > 100 µM (inactive); in the test on MOLT-4, 64.4 µM (inactive). In addition, the GI50 in the test with Malme-3M was > 100 µM (inactive); in the test with NCI-H23, > 100 µM (inactive); in the test with OVCAR-4, > 100 µM (inactive); with OVCAR-8, > 100 µM (inactive); with RPMI-8226 it was 82.2 µM (inactive); in the test on SF-295, > 100 µM (inactive). Also, the GI50 in the test with SF-539, in the test with SK-MEL-28, in the test on SK-OV-3, in the test with SN12C and with TK-10 was > 100 µM (inactive) each time.
Consider `O=c1c2ccccc2c(=O)c2c1c1[nH]c3ccccc3c1c1c(=O)c3ccccc3c(=O)c21`, for which the GI50 in the test with A498, in the test with HCC 2998, in the test on HOP-62, with HOP-92, in the test with LOX IMVI and in the test on MOLT-4 was > 100 µM (inactive) throughout. Besides, the GI50 in the test with Malme-3M, in the test with NCI-H23, in the test with OVCAR-4, in the test with OVCAR-8, in the test on RPMI-8226 and with SF-295 was > 100 µM (inactive) throughout. The GI50 in the test with SF-539, in the test on SK-MEL-28, with SK-OV-3, with SN12C and in the test with TK-10 was > 100 µM (inactive) in each case.
Consider `O=C(CSCC(=O)N/N=C\c1cccc(Br)c1)N/N=C\c1cccc(Br)c1`, for which the GI50 with DU-145 is 21.8 µM (inactive); with HOP-62 it was 17.4 µM (inactive); with HOP-92, 18.9 µM (inactive); in the test with LOX IMVI it was 10.8 µM (inactive); with MDA-MB-231, 12.7 µM (inactive); in the test on MOLT-4 it was 21.3 µM (inactive). In addition, the GI50 in the test on Malme-3M was 0.182 µM (active); with NCI-H23, 14.6 µM (inactive); with OVCAR-4 it was 20.1 µM (inactive); in the test on OVCAR-8, 15.3 µM (inactive); in the test with SF-295, 14.9 µM (inactive); with SF-539, 23.6 µM (inactive). Also, the GI50 is 18.8 µM (inactive) in the test with SK-MEL-28, 20.1 µM (inactive) with SK-OV-3, 16.2 µM (inactive) with SN12C and 11.6 µM (inactive) in the test on TK-10.
Turning to `O/N=C1/CCCC/C1=C/C=C/c1ccccc1`, the GI50 was 20.9 µM (inactive) with A498; 22.1 µM (inactive) with DU-145; 22.1 µM (inactive) with HCC 2998; 15.5 µM (inactive) with HOP-92; 17.2 µM (inactive) in the test with LOX IMVI; 19 µM (inactive) with MOLT-4. In addition, the GI50 was 21.3 µM (inactive) in the test with Malme-3M; 22.8 µM (inactive) in the test on NCI-H23; 30.3 µM (inactive) in the test with OVCAR-4; 41.9 µM (inactive) in the test with OVCAR-8; 18.6 µM (inactive) in the test with RPMI-8226; 21.8 µM (inactive) in the test on SF-295. The GI50 was 20.2 µM (inactive) in the test with SF-539; 3.42 µM (inactive) with SK-MEL-28; 39 µM (inactive) with SK-OV-3; 17.8 µM (inactive) with SN12C; 29 µM (inactive) in the test with TK-10.
With `Cc1nc(C(N)=S)sc1C(=O)CC(=O)C(=O)Nc1nc2ccccc2[nH]1`, the GI50 is > 100 µM (inactive) in the test on A498; > 100 µM (inactive) in the test on HCC 2998; > 100 µM (inactive) in the test on HOP-62; 69.5 µM (inactive) in the test with HOP-92; > 100 µM (inactive) in the test on LOX IMVI; > 100 µM (inactive) in the test on MDA-MB-231. The GI50 in the test with MOLT-4, in the test on Malme-3M, in the test with NCI-H23, with OVCAR-4, with OVCAR-8 and in the test on RPMI-8226 was > 100 µM (inactive) throughout. For the same molecule, the GI50 in the test on SF-295, with SF-539, in the test with SK-MEL-28, with SK-OV-3, with SN12C and in the test on TK-10 was > 100 µM (inactive) in each case.
Regarding `CC(=O)C1C(=O)C(=O)N(c2ccc([N+](=O)[O-])cc2[N+](=O)[O-])C1=O` (stereo not given), the GI50 with DU-145, in the test with HCC 2998, with HOP-62, in the test on HOP-92, in the test with LOX IMVI and with MDA-MB-231 was > 100 µM (inactive) throughout. For the same molecule, the GI50 in the test with MOLT-4, with NCI-H23, in the test on OVCAR-4, in the test with OVCAR-8, with SF-295 and with SF-539 was > 100 µM (inactive) in each case. The GI50 was > 100 µM (inactive) in the test on SK-MEL-28, 83.6 µM (inactive) with SK-OV-3, > 100 µM (inactive) with SN12C and 80.4 µM (inactive) in the test with TK-10.
With `COc1cc(CCc2ccc(N)cc2)cc(OC)c1OC`, the GI50 with A498 is 56.1 µM (inactive); in the test with HCC 2998, > 47.8 µM (inactive); in the test on HOP-62 it was > 42.7 µM (inactive); with HOP-92, 35.4 µM (inactive); in the test on LOX IMVI, 61 µM (inactive); in the test on MOLT-4, 36.9 µM (inactive). The GI50 is 28.2 µM (inactive) with Malme-3M; 92.3 µM (inactive) in the test with NCI-H23; 63.5 µM (inactive) in the test with OVCAR-4; > 75.9 µM (inactive) with OVCAR-8; 64.6 µM (inactive) in the test on RPMI-8226; 12.2 µM (inactive) in the test with SF-295. Further, the GI50 with SF-539 was 26.1 µM (inactive); in the test on SK-MEL-28, 46 µM (inactive); in the test on SK-OV-3, > 91.4 µM (inactive); with SN12C, > 54.8 µM (inactive); in the test on TK-10, > 74.3 µM (inactive).
